Results as given in PubChem BioAssay (NCI).
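96-well plates; 48 h exposure; 5 concentrations. Endpoints by linear interpolation between flanking doses. Not reached: highest tested concentration assigned. GI50 is the concentration that inhibits growth by half. The concentration for full growth arrest is given as TGI.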

Key:
Assay in all cases: growth of human tumour cells (NCI), 48 h; in the data active = GI50 below about 0.43 µM; inactive = the rest
786-0 renal = test system: 786-0 renal
A498 renal = test system: A498 renal
A549 NSCLC = test system: A549 NSCLC
ACHN renal = test system: ACHN renal
CAKI-1 renal = test system: CAKI-1 renal
CCRF-CEM leukemia = test system: CCRF-CEM leukemia
COLO 205 colon = test system: COLO 205 colon
DLD-1 colon = test system: DLD-1 colon
DMS 114 small cell lung = test system: DMS 114 small cell lung
DMS 273 small cell lung = test system: DMS 273 small cell lung
EKVX NSCLC = test system: EKVX NSCLC
HCC-2998 colon = test system: HCC-2998 colon
HCT-116 colon = test system: HCT-116 colon
HCT-15 colon = test system: HCT-15 colon
HOP-18 NSCLC = test system: HOP-18 NSCLC
HOP-62 NSCLC = test system: HOP-62 NSCLC
HT29 colon = test system: HT29 colon
IGROV1 ovarian = test system: IGROV1 ovarian
K-562 leukemia = test system: K-562 leukemia
KM20L2 colon = test system: KM20L2 colon
LOX IMVI melanoma = test system: LOX IMVI melanoma
M14 melanoma = test system: M14 melanoma
M19-MEL melanoma = test system: M19-MEL melanoma
MALME-3M melanoma = test system: MALME-3M melanoma
NCI-H226 lung = test system: NCI-H226 lung
NCI-H23 lung = test system: NCI-H23 lung
NCI-H460 lung = test system: NCI-H460 lung
OVCAR-3 ovarian = test system: OVCAR-3 ovarian
OVCAR-4 ovarian = test system: OVCAR-4 ovarian
OVCAR-5 ovarian = test system: OVCAR-5 ovarian
OVCAR-8 ovarian = test system: OVCAR-8 ovarian
RPMI-8226 leukemia = test system: RPMI-8226 leukemia
RXF-631 renal = test system: RXF-631 renal
SF-268 CNS = test system: SF-268 CNS
SF-295 CNS = test system: SF-295 CNS
SF-539 CNS = test system: SF-539 CNS
SK-MEL-2 melanoma = test system: SK-MEL-2 melanoma
SK-MEL-28 melanoma = test system: SK-MEL-28 melanoma
SK-MEL-5 melanoma = test system: SK-MEL-5 melanoma
SK-OV-3 ovarian = test system: SK-OV-3 ovarian
SN12C renal = test system: SN12C renal
SNB-19 CNS = test system: SNB-19 CNS
SNB-75 CNS = test system: SNB-75 CNS
SNB-78 CNS = test system: SNB-78 CNS
SW-620 colon = test system: SW-620 colon
TK-10 renal = test system: TK-10 renal
U251 CNS = test system: U251 CNS
UACC-257 melanoma = test system: UACC-257 melanoma
UACC-62 melanoma = test system: UACC-62 melanoma
UO-31 renal = test system: UO-31 renal
HOP-92 NSCLC = test system: HOP-92 NSCLC
KM12 colon = test system: KM12 colon
LXFL 529 NSCLC = test system: LXFL 529 NSCLC
MOLT-4 leukemia = test system: MOLT-4 leukemia
NCI-H522 lung = test system: NCI-H522 lung
RXF 393 renal = test system: RXF 393 renal
SR leukemia = test system: SR leukemia
XF 498 CNS = test system: XF 498 CNS

Cc1ccc(C(O)(c2ccc(C)cc2)c2ccccn2)cc1
> 100 µM: TGI (786-0 renal) | TGI (A498 renal) | TGI (A549 NSCLC) | TGI (ACHN renal) | TGI (CAKI-1 renal) | TGI (CCRF-CEM leukemia) | TGI (COLO 205 colon) | TGI (DLD-1 colon) | TGI (DMS 114 small cell lung) | TGI (DMS 273 small cell lung) | TGI (EKVX NSCLC) | TGI (HCC-2998 colon) | TGI (HCT-116 colon) | TGI (HCT-15 colon) | TGI (HOP-18 NSCLC) | TGI (HOP-62 NSCLC) | TGI (HT29 colon) | TGI (IGROV1 ovarian) | TGI (K-562 leukemia) | TGI (KM20L2 colon) | TGI (LOX IMVI melanoma) | TGI (M14 melanoma) | TGI (M19-MEL melanoma) | TGI (MALME-3M melanoma) | TGI (NCI-H226 lung) | TGI (NCI-H23 lung) | TGI (NCI-H460 lung) | TGI (OVCAR-3 ovarian) | TGI (OVCAR-4 ovarian) | TGI (OVCAR-5 ovarian) | TGI (OVCAR-8 ovarian) | TGI (RPMI-8226 leukemia) | TGI (RXF-631 renal) | TGI (SF-268 CNS) | TGI (SF-295 CNS) | TGI (SF-539 CNS) | TGI (SK-MEL-2 melanoma) | TGI (SK-MEL-28 melanoma) | TGI (SK-MEL-5 melanoma) | TGI (SK-OV-3 ovarian) | TGI (SN12C renal) | TGI (SNB-19 CNS) | TGI (SNB-75 CNS) | TGI (SNB-78 CNS) | TGI (SW-620 colon) | TGI (TK-10 renal) | TGI (U251 CNS) | TGI (UACC-257 melanoma) | TGI (UACC-62 melanoma) | TGI (UO-31 renal)

CN[C@@H](C)[C@H](N)c1ccccc1
> 100 µM: TGI (786-0 renal) | TGI (A498 renal) | TGI (A549 NSCLC) | TGI (ACHN renal) | TGI (CAKI-1 renal) | TGI (CCRF-CEM leukemia) | TGI (COLO 205 colon) | TGI (DLD-1 colon) | TGI (DMS 273 small cell lung) | TGI (EKVX NSCLC) | TGI (HCC-2998 colon) | TGI (HCT-116 colon) | TGI (HCT-15 colon) | TGI (HOP-18 NSCLC) | TGI (HOP-92 NSCLC) | TGI (HT29 colon) | TGI (IGROV1 ovarian) | TGI (K-562 leukemia) | TGI (KM12 colon) | TGI (LOX IMVI melanoma) | TGI (LXFL 529 NSCLC) | TGI (M14 melanoma) | TGI (MOLT-4 leukemia) | TGI (NCI-H226 lung) | TGI (NCI-H23 lung) | TGI (NCI-H460 lung) | TGI (NCI-H522 lung) | TGI (OVCAR-3 ovarian) | TGI (OVCAR-8 ovarian) | TGI (RPMI-8226 leukemia) | TGI (RXF 393 renal) | TGI (RXF-631 renal) | TGI (SF-295 CNS) | TGI (SF-539 CNS) | TGI (SK-MEL-28 melanoma) | TGI (SK-MEL-5 melanoma) | TGI (SK-OV-3 ovarian) | TGI (SN12C renal) | TGI (SNB-75 CNS) | TGI (SNB-78 CNS) | TGI (SW-620 colon) | TGI (TK-10 renal) | TGI (U251 CNS) | TGI (UACC-257 melanoma) | TGI (UACC-62 melanoma) | TGI (UO-31 renal)

C[CH2][Ge]([CH2]C)([CH2]C)[O]C(=O)CCC(=O)[O][Ge]([CH2]C)([CH2]C)[CH2]C
> 100 µM: TGI (A549 NSCLC) | TGI (ACHN renal) | TGI (CAKI-1 renal) | TGI (CCRF-CEM leukemia) | TGI (COLO 205 colon) | TGI (DLD-1 colon) | TGI (DMS 114 small cell lung) | TGI (DMS 273 small cell lung) | TGI (EKVX NSCLC) | TGI (HCC-2998 colon) | TGI (HCT-116 colon) | TGI (HCT-15 colon) | TGI (HOP-18 NSCLC) | TGI (HOP-62 NSCLC) | TGI (HOP-92 NSCLC) | TGI (HT29 colon) | TGI (IGROV1 ovarian) | TGI (K-562 leukemia) | TGI (KM12 colon) | TGI (KM20L2 colon) | TGI (LOX IMVI melanoma) | TGI (LXFL 529 NSCLC) | TGI (M14 melanoma) | TGI (M19-MEL melanoma) | TGI (MALME-3M melanoma) | TGI (MOLT-4 leukemia) | TGI (NCI-H226 lung) | TGI (NCI-H23 lung) | TGI (NCI-H460 lung) | TGI (NCI-H522 lung) | TGI (OVCAR-3 ovarian) | TGI (OVCAR-4 ovarian) | TGI (OVCAR-5 ovarian) | TGI (OVCAR-8 ovarian) | TGI (RPMI-8226 leukemia) | TGI (RXF 393 renal) | TGI (SF-268 CNS) | TGI (SF-539 CNS) | TGI (SK-MEL-2 melanoma) | TGI (SK-MEL-28 melanoma) | TGI (SK-OV-3 ovarian) | TGI (SN12C renal) | TGI (SNB-19 CNS) | TGI (SR leukemia) | TGI (SW-620 colon) | TGI (TK-10 renal) | TGI (U251 CNS) | TGI (UACC-62 melanoma) | TGI (UO-31 renal) | TGI (XF 498 CNS)
active: GI50 (RPMI-8226 leukemia) 249 nM
inactive: GI50 (A549 NSCLC) 68.5 µM | GI50 (ACHN renal) > 100 µM | GI50 (CAKI-1 renal) > 100 µM | GI50 (CCRF-CEM leukemia) 23.7 µM | GI50 (COLO 205 colon) > 100 µM | GI50 (DLD-1 colon) 38.7 µM | GI50 (DMS 114 small cell lung) 38.9 µM | GI50 (DMS 273 small cell lung) 85.9 µM | GI50 (EKVX NSCLC) 20.5 µM | GI50 (HCC-2998 colon) 90.9 µM | GI50 (HCT-116 colon) 57.3 µM | GI50 (HCT-15 colon) 48.4 µM | GI50 (HOP-18 NSCLC) > 100 µM | GI50 (HOP-62 NSCLC) > 100 µM | GI50 (HOP-92 NSCLC) 16.2 µM | GI50 (HT29 colon) 40.2 µM | GI50 (IGROV1 ovarian) > 100 µM | GI50 (K-562 leukemia) 29.6 µM | GI50 (KM12 colon) 55.2 µM | GI50 (KM20L2 colon) > 100 µM | GI50 (LOX IMVI melanoma) 58 µM | GI50 (LXFL 529 NSCLC) 42.5 µM | GI50 (M14 melanoma) > 100 µM | GI50 (M19-MEL melanoma) > 100 µM | GI50 (MALME-3M melanoma) 79.3 µM | GI50 (MOLT-4 leukemia) 39 µM | GI50 (NCI-H226 lung) > 100 µM | GI50 (NCI-H23 lung) 39.7 µM | GI50 (NCI-H460 lung) 24.8 µM | GI50 (NCI-H522 lung) 45.2 µM | GI50 (OVCAR-3 ovarian) 66 µM | GI50 (OVCAR-4 ovarian) > 100 µM | GI50 (OVCAR-5 ovarian) > 100 µM | GI50 (OVCAR-8 ovarian) 34.7 µM | GI50 (RXF 393 renal) > 100 µM | GI50 (SF-268 CNS) > 100 µM | GI50 (SF-539 CNS) > 100 µM | GI50 (SK-MEL-2 melanoma) > 100 µM | GI50 (SK-MEL-28 melanoma) > 100 µM | GI50 (SK-OV-3 ovarian) > 100 µM | GI50 (SN12C renal) > 100 µM | GI50 (SNB-19 CNS) > 100 µM | GI50 (SR leukemia) 40.3 µM | GI50 (SW-620 colon) > 100 µM | GI50 (TK-10 renal) > 100 µM | GI50 (U251 CNS) 43.3 µM | GI50 (UACC-62 melanoma) > 100 µM | GI50 (UO-31 renal) 87.5 µM | GI50 (XF 498 CNS) > 100 µM
